Data: US20050075375A1 (priority 2003, published 2005)

System: monocistronic NK5.1 HCV replicon in Huh7 cells
Assay: HCV replicon assay, monocistronic replicon cell line
Type: cell-based, hepatitis C virus
Details: Hepatitis C virus, Huh-7; monocistronic NK5.1 HCV replicon in Huh7 cells; median value; read-out: Mono EC50 Median
How it was run: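 EC50 derives from the HCV RNA/GAPDH RNA ratio by one-step TaqMan RT-PCR, relative to DMSO-only wells. Compounds (six half-log concentrations, 0.6% DMSO) were incubated 3 days at 37 °C with NK5.1 monocistronic replicon Huh7 cells plated a day earlier.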

Compound	EC50
COc1ccc(-c2nc(-c3cnccc3C(F)(F)F)n[nH]2)c(O)c1 [Compound 421, 5-Methoxy-2-[5-(4-trifluoromethyl-pyridin-3-yl)-2H-[1,2,4]triazol-3-yl]-phenol]	> 19 µM
Oc1ccccc1-c1nc(-c2cnccc2C(F)(F)F)n[nH]1 [Compound 422, 2-[5-(4-trifluoromethyl-pyridin-3-yl)-2H-[1,2,4]triazol-3-yl]-phenol]	> 19 µM
COc1cccc(-c2nc(-c3cnccc3C(F)(F)F)n[nH]2)c1O [Compound 423, 6-Methoxy-2-[5-(4-trifluoromethyl-pyridin-3-yl)-2H-[1,2,4]triazol-3-yl]-phenol]	> 19 µM
CCN(CC)c1ccc(-c2nc(-c3cnccc3C(F)(F)F)n[nH]2)c(O)c1 [Compound 424, 5-Diethylamino-2-[5-(4-trifluoromethyl-pyridin-3-yl)-2H-[1,2,4]triazol-3-yl]-phenol]	> 3.2 µM
CC1(C)CCN2CCC(C)(C)c3c(O)c(-c4nc(-c5cnccc5C(F)(F)F)n[nH]4)cc1c32 [Compound 425, 1,1,7,7-Tetramethyl-9-[5-(4-trifluoromethyl-pyridin-3-yl)-2H-[1,2,4]triazol-3-yl]-2,3,6,7-tetrahydro-1H,5H-pyrido[3,2,1-ij]quinolin-8-ol]	2.9 µM
Oc1ccc(O)c(-c2nc(-c3cnccc3C(F)(F)F)n[nH]2)c1 [Compound 426, 4-Hydroxy-2-[5-(4-trifluoromethyl-pyridin-3-yl)-2H-[1,2,4]triazol-3-yl]-phenol]	12 µM
COc1cccc(-c2nc(-c3cnccc3C(F)(F)F)n[nH]2)c1 [Compound 427, 3-[5-(3-Methoxy-phenyl)-1H-[1,2,4]triazol-3-yl]-4-trifluoromethyl-pyridine]	> 19 µM
CC(C)c1ccc(-c2nc(-c3cnccc3C(F)(F)F)n[nH]2)cc1 [Compound 428, 3-[5-(4-Isopropyl-phenyl)-1H-[1,2,4]triazol-3-yl]-4-trifluoromethyl-pyridine]	> 19 µM
Oc1ccc2ccccc2c1-c1nc(-c2cnccc2C(F)(F)F)n[nH]1 [Compound 429, 1-[5-(4-trifluoromethyl-pyridin-3-yl)-2H-[1,2,4]triazol-3-yl]-naphthalen-2-ol]	> 19 µM
FC(F)(F)c1ccncc1-c1n[nH]c(-c2ccc(Br)cc2)n1 [Compound 430, 3-[5-(4-Bromo-phenyl)-1H-[1,2,4]triazol-3-yl]-4-trifluoromethyl-pyridine]	> 19 µM
Brc1ccccc1-c1nc(-c2ccccn2)n[nH]1 [Compound 431, 2-[5-(2-Bromo-phenyl)-1H-[1,2,4]triazol-3-yl]-pyridine]	> 19 µM
Brc1cccc(-c2nc(-c3ccccn3)n[nH]2)c1 [Compound 432, 2-[5-(3-Bromo-phenyl)-1H-[1,2,4]triazol-3-yl]-pyridine]	19 µM
Brc1ccc(-c2nc(-c3ccccn3)n[nH]2)cc1 [Compound 433, 2-[5-(4-Bromo-phenyl)-1H-[1,2,4]triazol-3-yl]-pyridine]	> 19 µM
Fc1ccccc1-c1nc(-c2ccccn2)n[nH]1 [Compound 434, 2-[5-(2-Fluoro-phenyl)-1H-[1,2,4]triazol-3-yl]-pyridine]	> 19 µM
Clc1cccc(Cl)c1-c1nc(-c2ccccn2)n[nH]1 [Compound 435, 2-[5-(2,6-Dichloro-phenyl)-1H-[1,2,4]triazol-3-yl]-pyridine]	> 19 µM
Fc1cccc(Cl)c1-c1nc(-c2ccccn2)n[nH]1 [Compound 436, 2-[5-(2-Fluoro-6-chloro-phenyl)-1H-[1,2,4]triazol-3-yl]-pyridine]	16 µM
Brc1ccccc1-c1nc(-c2nccc3ccccc23)n[nH]1 [Compound 437]	2.7 µM
Brc1cccc(-c2nc(-c3nccc4ccccc34)n[nH]2)c1 [Compound 438]	> 19 µM
Brc1ccc(-c2nc(-c3nccc4ccccc34)n[nH]2)cc1 [Compound 439]	> 19 µM
Cc1cccnc1-c1n[nH]c(-c2cccc3ccccc23)n1 [Compound 440, 3-Methyl-2-(5-naphthalen-1-yl-1H-[1,2,4]triazol-3-yl)-pyridine]	5.6 µM
Cc1cccnc1-c1n[nH]c(-c2cc(C(C)(C)C)ccc2O)n1 [Compound 441, 4-tert-Butyl-2-[5-(3-methyl-pyridin-2-yl)-2H-[1,2,4]triazol-3-yl]-phenol]	> 10 µM
Cc1cccnc1-c1n[nH]c(-c2cc([N+](=O)[O-])ccc2O)n1 [Compound 442, 4-Nitro-2-(5-(3-methyl-pyridin-2-yl)-2H-[1,2,4]triazol-3-yl)-phenol]	7.9 µM
Cc1cccnc1-c1n[nH]c(-c2cc(F)ccc2O)n1 [Compound 443, 4-Fluoro-2-(5-(3-methyl-pyridin-2-yl)-2H-[1,2,4]triazol-3-yl)-phenol]	> 10 µM
COc1ccc(O)c(-c2nc(-c3ncccc3C)n[nH]2)c1 [Compound 444, 4-Methoxy-2-(5-(3-methyl-pyridin-2-yl)-2H-[1,2,4]triazol-3-yl)-phenol]	7.7 µM

Compound	EC50
Cc1cccnc1-c1n[nH]c(-c2cc(Cl)ccc2O)n1 [Compound 445, 4-Chloro-2-(5-(3-methyl-pyridin-2-yl)-2H-[1,2,4]triazol-3-yl)-phenol]	2.9 µM
CCOc1cccc(-c2nc(-c3ncccc3C)n[nH]2)c1O [Compound 446, 6-Ethoxy-2-(5-(3-methyl-pyridin-2-yl)-2H-[1,2,4]triazol-3-yl)-phenol]	7.8 µM
Cc1cccnc1-c1n[nH]c(-c2ccc(OCc3ccccc3)cc2O)n1 [Compound 447, 5-Benzyloxy-2-(5-(3-methyl-pyridin-2-yl)-2H-[1,2,4]triazol-3-yl)-phenol]	> 10 µM
Cc1cccnc1-c1n[nH]c(-c2ccc(-c3ccccc3)c(F)c2)n1 [Compound 448, 2-[5-(2-Fluoro-biphenyl-4-yl)-1H-[1,2,4]triazol-3-yl]-3-methyl-pyridine]	28 µM
Cc1cccnc1-c1n[nH]c(-c2cc(Br)ccc2O)n1 [Compound 449, 4-Bromo-2-(5-(3-methyl-pyridin-2-yl)-2H-[1,2,4]triazol-3-yl)-phenol]	2.3 µM
Cc1ccc(O)c(-c2nc(-c3ncccc3C)n[nH]2)c1 [Compound 450, 4-Methyl-2-(5-(3-methyl-pyridin-2-yl)-2H-[1,2,4]triazol-3-yl)-phenol]	4.2 µM
COc1ccc(-c2nc(-c3ncccc3C)n[nH]2)c(O)c1 [Compound 451, 5-Methoxy-2-(5-(3-methyl-pyridin-2-yl)-2H-[1,2,4]triazol-3-yl)-phenol]	23 µM
Cc1cccnc1-c1n[nH]c(-c2ccccc2O)n1 [Compound 452, 2-(5-(3-methyl-pyridin-2-yl)-2H-[1,2,4]triazol-3-yl)-phenol]	31 µM
COc1cccc(-c2nc(-c3ncccc3C)n[nH]2)c1O [Compound 453, 6-Methoxy-2-(5-(3-methyl-pyridin-2-yl)-2H-[1,2,4]triazol-3-yl)-phenol]	21 µM
Cc1cccnc1-c1n[nH]c(-c2cccc([N+](=O)[O-])c2)n1 [Compound 454, 3-Methyl-2-[5-(3-nitro-phenyl)-1H-[1,2,4]triazol-3-yl]-pyridine]	24 µM
CCN(CC)c1ccc(-c2n[nH]c(-c3ncccc3C)n2)c(O)c1 [Compound 455, 5-Diethylamino-2-[5-(3-methyl-pyridin-2-yl)-2H-[1,2,4]triazol-3-yl]-phenol]	8.1 µM
Cc1cccnc1-c1n[nH]c(-c2cc3c4c(c2O)C(C)(C)CCN4CCC3(C)C)n1 [Compound 456, 1,1,7,7-Tetramethyl-9-[5-(3-methyl-pyridin-2-yl)-2H-[1,2,4]triazol-3-yl]-2,3,6,7-tetrahydro-1H,5H-pyrido[3,2,1-ij]quinolin-8-ol]	0.73 µM
Cc1cccnc1-c1n[nH]c(-c2cc(O)ccc2O)n1 [Compound 457, 4-Hydroxy-2-[5-(3-methyl-pyridin-2-yl)-2H-[1,2,4]triazol-3-yl]-phenol]	4.1 µM
COc1cccc(-c2nc(-c3ncccc3C)n[nH]2)c1 [Compound 458, 2-[5-(3-Methoxy-phenyl)-1H-[1,2,4]triazol-3-yl]-3-methyl-pyridine]	> 32 µM
COc1ccc(F)c(-c2nc(-c3ncccc3C)n[nH]2)c1 [Compound 459, 2-[5-(2-Fluoro-5-methoxy-phenyl)-1H-[1,2,4]triazol-3-yl]-3-methyl-pyridine]	> 32 µM
Cc1cccnc1-c1n[nH]c(-c2ccc(C(C)C)cc2)n1 [Compound 460, 2-[5-(4-Isopropyl-phenyl)-1H-[1,2,4]triazol-3-yl]-3-methyl-pyridine]	3 µM
Cc1cccnc1-c1n[nH]c(-c2c(O)ccc3ccccc23)n1 [Compound 461, 1-(5-(3-methyl-pyridin-2-yl)-2H-[1,2,4]triazol-3-yl)-naphthalen-2-ol]	6.9 µM
Cc1cccc(-c2n[nH]c(-c3ccccc3Br)n2)n1 [Compound 462, 2-[5-(2-Bromo-phenyl)-1H-[1,2,4]triazol-3-yl]-6-mehtyl-pyridine]	> 32 µM
Cc1cccc(-c2n[nH]c(-c3cccc(Br)c3)n2)n1 [Compound 463, 2-[5-(3-Bromo-phenyl)-1H-[1,2,4]triazol-3-yl]-6-methyl-pyridine]	19 µM
Cc1cccc(-c2n[nH]c(-c3ccc(Br)cc3)n2)n1 [Compound 464, 2-[5-(4-Bromo-phenyl)-1H-[1,2,4]triazol-3-yl]-6-methyl-pyridine]	> 32 µM
Cc1cccc(-c2n[nH]c(-c3ccccc3F)n2)n1 [Compound 465, 2-[5-(2-Fluoro-phenyl)-1H-[1,2,4]triazol-3-yl]-6-methyl-pyridine]	> 32 µM
Cc1cccc(-c2n[nH]c(-c3ccccc3Cl)n2)n1 [Compound 466, 2-[5-(2-Chloro-phenyl)-1H-[1,2,4]triazol-3-yl]-6-methyl-pyridine]	> 32 µM
Cc1cccc(-c2n[nH]c(-c3c(Cl)cccc3Cl)n2)n1 [Compound 467, 2-[5-(2,6-Dichloro-phenyl)-1H-[1,2,4]triazol-3-yl]-6-methyl-pyridine]	> 32 µM
